This is an account of results in patent US20240316038A1, “APOL1 INHIBITORS AND METHODS OF USE” (Maze Therapeutics, Inc., priority 2021, published 2024).

A value given as a limit tells only on which side of the number the result lay.

The target in assay [1] is T1, APOL1 G2 (Homo sapiens, UniProt O14791, DEL388-389).
T1 construct: expressed in transfected cells; host or cells: HEK293 T-REx clonal lines: HEK T-REx/GCaMP6f/APOL1 G2 K6.3 in A1, HEK293/T-REx APOL1 G2/clone #2 in A2
T1 sequence (O14791 with tags, fused parts or gaps DEL388-389): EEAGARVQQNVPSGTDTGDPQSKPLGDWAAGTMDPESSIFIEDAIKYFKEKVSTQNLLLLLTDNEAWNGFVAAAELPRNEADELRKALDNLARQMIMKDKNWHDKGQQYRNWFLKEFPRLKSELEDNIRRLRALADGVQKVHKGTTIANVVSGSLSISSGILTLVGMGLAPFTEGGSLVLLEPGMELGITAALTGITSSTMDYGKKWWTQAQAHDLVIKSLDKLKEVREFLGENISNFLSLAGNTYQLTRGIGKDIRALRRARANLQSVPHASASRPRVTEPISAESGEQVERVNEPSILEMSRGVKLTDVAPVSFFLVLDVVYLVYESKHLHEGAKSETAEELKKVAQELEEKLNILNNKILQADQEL
Description: APOL1 calcium transport inhibition assay (GCaMP6f calcium influx, FLIPR) in HEK T-REx/GCaMP6f/APOL1 G2 K6.3 cells. Format: cell-based. Particulars: inhibition of APOL1-mediated calcium influx; geometric mean of at least 2 assay runs, † = single assay run (technical duplicate). Put shortly: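 HEK293 cells stably expressing GCaMP6f, APOL1 G2 induced 6 h with doxycycline (20 ng/mL added), then washed into Ca2+-free Tyrode's buffer pH 7.4. Compounds (8-point dose response) preincubated 10 min at room temperature, then Ca2+ injected to 5 mM final and influx read on FLIPR. AC50 reported as geometric mean of runs.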

Assay [2] has as its target T1, APOL1 G2. Kind of assay: Rescue of HEK293 cell death caused by overexpression of APOL1 (CellTiter-Glo luminescence), HEK293/T-REx APOL1 G2/clone #2. It counts as cell-based. Particulars: reversal of cell death caused by overexpression of APOL1; geometric mean of at least 2 assay runs, † = single assay run (technical duplicate). Put shortly: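 HEK293/T-REx APOL1 G2 clone #2 cells, 5,000/well, induced with 6 ng/mL doxycycline and exposed to compound (8-point, 3-fold dilutions, 0.5% DMSO) for 17 h at 37 °C. Viability by CellTiter-Glo luminescence; EC50 for reversal of APOL1-induced death from a four-parameter logistic fit, geometric mean of ≥2 runs.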

As for `C[C@@H]1CN(CCc2cccc(C#N)c2)C[C@H]1COc1ccc(S(C)(=O)=O)cc1` [Compound 149, 3-{2-[(3S,4S)-3-[(4-methane-sulfonylphen-oxy)methyl]-4-methylpyrroli-din-1-yl]ethyl}-benzonitrile], in assay [1], the AC50 was found to be 99.8 nM. Besides, the EC50 in assay [2] turned out to be 272 nM.
`C[C@@H]1C[C@H](COc2ccc(S(C)(=O)=O)cc2)CN1CCc1cccc(Cl)c1` [Compound 153, (2R,4S)-1-[2-(3-chlorophenyl)-ethyl]-4-[(4-methanesulfon-ylphenoxy)meth-yl]-2-methyl-pyrrolidine]: the AC50 in assay [1] turned out to be 374 nM. Moreover, the EC50 in assay [2] stood at 27.8 nM.
Turning to `C[C@@H]1C[C@H](COc2ccc(S(=O)(=O)C3CNC3)cc2)CN1CCc1cccc(C#N)c1` [Compound 156, 3-{2-[(2R,4S)-4-{[4-(azetidine-3-sulfonyl)phenoxy]methyl}-2-methylpyrrolidin-1-yl]ethyl}benzonitrile], the AC50 in assay [1] is 311 nM. In addition, the EC50 in assay [2] stood at 178 nM.
Consider `CN=S(C)(=O)c1ccc(OC[C@H]2C[C@@H](C)N(CCc3cccc(C#N)c3)C2)cc1` (stereo partly drawn) [Compound 157, 3-[2-[(2R,4S)-2-methyl-4-({4-[methyl(methyli-mino)oxo-λ^6-sulfanyl]phenoxy}methyl)pyrrolidin-1-yl]ethyl}benzonitrile], for which the AC50 in assay [1] came to 441 nM. Further, in assay [2], the EC50 came to 38.9 nM.
As for `C[C@@H]1CC[C@H](COc2ccc(S(C)(=O)=O)cc2)CN1CCc1cccc(Cl)c1` [Compound 160, (2R,5S)-1-[2-(3-chlorophenyl)ethyl]-5-[(4-methanesulfonylphenoxy)methyl]-2-methylpiperidine], the AC50 in assay [1] came out at 382 nM. The EC50 in assay [2] came out at 584 nM.
Taken in the same sequence, the figures for `C[C@@H]1C[C@H](COc2ccc(S(=O)(=O)C3CNC3)cc2)CN1CCc1cc(Cl)cc(C#N)c1` [Compound 161, 3-{2-[(2R,4S)-4-{[4-(azetidine-3-sulfonyl)phenoxy]methyl}-2-methylpyrrolidin-1-yl]ethyl}-5-chlorobenzonitrile] were 878 nM and 191 nM.
With `C[C@@H]1C[C@H](COc2ccc(S(=O)(=O)CCCS(C)(=O)=O)cc2)CN1CCc1cccc(C#N)c1` [Compound 162, 3-{2-[(2R,4S)-4-{[4-(3-methanesulfonylpro-panesulfonyl)phe-noxy]methyl}-2-methylpyrrolidin-1-yl]ethyl}benzonitrile], the AC50 in assay [1] stood at 233 nM. In assay [2], the EC50 was found to be 27.9 nM.
As to `C[C@@H]1CN(CCc2cccc(S(F)(F)(F)(F)F)c2)C[C@H]1COc1ccc(S(C)(=O)=O)cc1` [Compound 163, (3S,4S)-3-[(4-methanesulfonylphenoxy)methyl]-4-methyl-1-{2-[3-(pentafluoro-λ^6-sulfanyl)phenyl]ethyl}pyrrolidine], in assay [1], the AC50 was determined as 1150 nM. For the same compound, the EC50 in assay [2] is over 385 nM.
As for `C[C@@H]1C[C@H](COc2ccc(S(=O)(=O)CCCS(C)(=O)=O)cc2)CN1CCc1cc(Cl)cc(C#N)c1` [Compound 164, 3-chloro-5-{2-[(2R,4S)-4-{[4-(3-methanesulfonylpro-panesulfonyl)phe-noxy]methyl}-2-methylpyrrolidin-1-yl]ethyl}benzonitrile], in assay [1], the AC50 was found to be 364 nM. In addition, the EC50 in assay [2] is 34.1 nM.
`C[C@@H]1C[C@H](COc2ccc(S(=O)(=O)CCO)cc2)CN1CCc1cc(Cl)cc(C#N)c1` [Compound 165, 3-chloro-5-{2-[(2R,4S)-4-{[4-(2-hydroxyethanesul-fonyl)phenoxy]meth-yl}-2-methylpyrrolidin-1-yl]ethyl}benzonitrile]: in assay [1], the AC50 was found to be 409 nM. In assay [2], the EC50 is 30.2 nM.
For `C[C@@H]1CN(CCc2cc(Cl)cc(C#N)c2)C[C@H]1COc1ccc(S(=O)(=O)C(C)(C)CO)cc1` [Compound 166, 3-chloro-5-{2-[(3S,4S)-3-{[4-(1-hydroxy-2-methylpropane-2-sulfonyl)phenoxy]methyl}-4-methylpyrrolidin-1-yl]ethyl}benzonitrile], the AC50 in assay [1] is 256 nM. Also, in assay [2], the EC50 worked out at 17.9 nM.
For `C[C@@H]1CN(CCc2cc(Cl)cc(C#N)c2)C[C@H]1COc1ccc(S(=O)(=O)CCCS(C)(=O)=O)cc1` [Compound 167, 3-chloro-5-{2-[(3S,4S)-3-{[4-(3-methanesulfonylpro-panesulfonyl)phe-noxy]methyl}-4-methylpyrrolidin-1-yl]ethyl}benzonitrile], in assay [1], the AC50 was 314 nM. Also, in assay [2], the EC50 came out at 67.2 nM.
The corresponding values for `C[C@@H]1CN(CCc2cccc(C#N)c2)C[C@H]1COc1ccc(S(=O)(=O)CCCS(C)(=O)=O)cc1` [Compound 168, 3-{2-[(3S,4S)-3-{[4-(3-methanesulfonylpro-panesulfonyl)phe-noxy]methyl}-4-methylpyrrolidin-1-yl]ethyl}benzonitrile] are 179 nM and 126 nM.
Consider `CN=S(C)(=O)c1ccc(OC[C@@H]2CN(CCc3cccc(C#N)c3)C[C@H]2C)cc1` (stereo partly drawn) [Compound 169, 3-{2-[(3S,4S)-3-methyl-4-({4-[methyl(methyli-mino)oxo-λ^6-sulfanyl]phenoxy}methyl)pyrrolidin-1-yl]ethyl}benzonitrile], for which the AC50 in assay [1] turned out to be 79.7 nM. Besides, in assay [2], the EC50 turned out to be 182 nM.
As for `C[C@@H]1CN(CCc2cccc(C#N)c2)C[C@H]1COc1ccc(S(=O)(=O)C2CNC2)cc1` [Compound 172, 3-{2-[(3S,4S)-3-{[4-(azetidine-3-sulfonyl)phenoxy]methyl}-4-methylpyrrolidin-1-yl]ethyl}benzonitrile], the AC50 in assay [1] worked out at 104 nM. Besides, the EC50 in assay [2] is 203 nM.
The corresponding values for `C[C@@H]1CN(CCc2cc(Cl)cc(C#N)c2)C[C@H]1COc1ccc(S(=O)(=O)C2CNC2)cc1` [Compound 173, 3-{2-[(3S,4S)-3-{[4-(azetidine-3-sulfonyl)phenoxy]methyl}-4-methylpyrrolidin-1-yl]ethyl}-5-chlorobenzonitrile] are 491 nM and 201 nM.
On to `C[C@@H]1CN(CCc2cc(Cl)cc(C#N)c2)C[C@H]1COc1ccc(S(=O)(=O)CCO)cc1` [Compound 174, 3-chloro-5-{2-[(3S,4S)-3-{[4-(2-hydroxyethanesul-fonyl)phenoxy]meth-yl}-4-methylpyrrolidin-1-yl]ethyl}benzonitrile], for which the AC50 in assay [1] is 157 nM. Besides, the EC50 in assay [2] turned out to be 36.1 nM.
For the compound `C[C@@H]1CN(CCc2cc(F)cc(Cl)c2)C[C@H]1COc1ccc(S(C)(=O)=O)cc1` [Compound 181, (3S,4S)-1-[2-(3-chloro-5-fluorophenyl)ethyl]-3-[(4-methanesulfonylphenoxy)methyl]-4-methylpyrrolidine], the AC50 in assay [1] is under 96.1 nM. Further, the EC50 in assay [2] stood at 325 nM.
The corresponding values for `N#Cc1cc(Cl)cc(CCN2CCN[C@H](COc3ccc(S(=O)(=O)CCO)cc3)C2)c1` [Compound 182, 3-chloro-5-{2-[(3S)-3-{[4-(2-hydroxyethane-sulfonyl)phenoxy]methyl}pi-perazin-1-yl]ethyl}benzo-nitrile] are 396 nM and 399 nM.
The corresponding values for `CC(C)(CO)S(=O)(=O)c1ccc(OC[C@@H]2CN(CCc3cc(Cl)cc(C#N)c3)CCN2)cc1` [Compound 183, 3-chloro-5-{2-[(3S)-3-{[4-(1-hydroxy-2-methylpropane-2-sulfonyl)phenoxy]methyl}pi-perazin-1-yl]ethyl}benzo-nitrile] are 149 nM and 157 nM.
For `CS(=O)(=O)CCCS(=O)(=O)c1ccc(OC[C@@H]2CN(CCc3cccc(Cl)c3)CCN2)cc1` [Compound 184, (3S)-1-[2-(3-chlorophenyl)ethyl]-3-{[4-(3-methanesulfonylpropanesulfonyl)phenoxy]methyl}piperazine], the AC50 in assay [1] is 215 nM. Moreover, the EC50 in assay [2] stood at 622 nM.
The corresponding values for `O=S(=O)(c1ccc(OC[C@@H]2CN(CCc3cccc(Cl)c3)CCN2)cc1)C1CNC1` [Compound 185, (3S)-3-{[4-(azetidine-3-sulfonyl)phenoxy]methyl}-1-[2-(3-chlorophenyl)ethyl]piperazine] are 322 nM and 239 nM.
Regarding `CN=S(C)(=O)c1ccc(OC[C@@H]2CN(CCc3cc(Cl)cc(C#N)c3)CCN2)cc1` (stereo partly drawn) [Compound 186, 3-chloro-5-{2-[(3S)-3-({4-[methyl(methyl-imino)oxo-λ^6-sulfanyl]pheno-xy}methyl)pipera-zin-1-yl]ethyl}benzo-nitrile], in assay [1], the AC50 turned out to be 6980 nM. The EC50 in assay [2] is 631 nM.
On to `CS(=O)(=O)c1ccc(OC[C@@H]2CN(CCc3cc(Cl)cc(C#N)c3)CCN2)cc1` [Compound 189, 3-chloro-5-{2-[(3S)-3-[(4-methanesulfonylphenoxy)methyl]piperazin-1-yl]ethyl}benzonitrile], for which the AC50 in assay [1] came to 634 nM. In assay [2], the EC50 was 922 nM.
